Values of other authors, collected in patent publication US12576017B2, “Sunscreen composition with enhanced photoprotection” (Edgewell Personal Care Brands, LLC, priority 2021, dated 2026).

details: lipid/water partition

Row | SMILES | Log P @25° C.
1 | COc1ccc(C(=O)c2ccccc2)c(O)c1 [Benzophenone-3, 2-hydroxy-4-methoxybenzophenone] | 2.63
2 | COc1cc(O)c(C(=O)c2ccccc2)cc1S(=O)(=O)O [Benzophenone-4, 2-hydroxy-4-methoxybenzophenone-5-sulfonic acid] | −1.51
3 | COc1ccc(C(=O)c2ccccc2O)c(O)c1 [Benzophenone-8, 2,2′-dihydroxy-4-methoxybenzophenone] | 2.15
4 | CCOCCOC(=O)/C=C/c1ccc(OC)cc1 [Cinoxate, Ethoxyethyl methoxy cinnamate] | 2.55
5 | CCOC(=O)c1ccc(N(CC(C)O)CC(C)O)cc1 (stereo not shown) [Ethyl dihydroxypropyl PABA, Ethyl-4-bis(2-hydroxypropyl-aminobenzoate)] | 2.84
6 | Nc1ccc(C(=O)OCC(O)CO)cc1 (stereo not shown) [Glyceryl PABA, 1,2,3-Propanetriol,1-(4-aminobenzoate)] | −0.02
7 | CC1CC(OC(=O)c2ccccc2O)CC(C)(C)C1 (stereo not shown) [Homosalate, Homomenthyl salicylate] | 5.61
8 | CC1CCC(C(C)C)C(OC(=O)c2ccccc2N)C1 (stereo not shown) [Menthyl anthranilate, Menthyl-O aminobenzoate] | 5.05
9 | CCCCC(CC)COC(=O)C(C#N)=C(c1ccccc1)c1ccccc1 (stereo not shown) [Octocrylene, Octyl cyanodiphenylacrylate] | 5.69
10 | CCCCC(CC)COC(=O)c1ccc(N(C)C)cc1 (stereo not shown) [Octyl dimethyl PABA, 2-Ethylhexyl-p-dimethyl aminobenzoate] | 6.08
11 | CCCCC(CC)COC(=O)C=Cc1ccc(OC)cc1 (stereo not shown) [Octyl methoxy cinnamate, Ethylhexyl-p-methoxy cinnamate] | 5.65
12 | CCCCC(CC)COC(=O)c1ccccc1O (stereo not shown) [Octyl salicylate, 2-Ethylhexyl salicylate] | 5.30
13 | Nc1ccc(C(=O)O)cc1 [PABA, p-Amino benzoic acid] | 0.74
